Earlier results as cited in US4101650A, “Pepstatin floating minicapsules” (Zaidan Hojin Biseibutsu Kagaku Kenkyu Kai, priority 1977, dated 1978).
Where a SMILES comes first, the peptide text is derived from it. [ ]: non-standard residue; d: D form. The star is where a group is joined. Sta = CC(C)C[C@H](N)[C@@H](O)CC(=O)O; Isovaleryl = CC(C)CC(=O)*

Columns and labels:
cathepsin D = cathepsin D (Homo sapiens, UniProt P07339)
renin = target: T1, renin (Homo sapiens, UniProt P00797)
T1 sequence (P00797 67-406): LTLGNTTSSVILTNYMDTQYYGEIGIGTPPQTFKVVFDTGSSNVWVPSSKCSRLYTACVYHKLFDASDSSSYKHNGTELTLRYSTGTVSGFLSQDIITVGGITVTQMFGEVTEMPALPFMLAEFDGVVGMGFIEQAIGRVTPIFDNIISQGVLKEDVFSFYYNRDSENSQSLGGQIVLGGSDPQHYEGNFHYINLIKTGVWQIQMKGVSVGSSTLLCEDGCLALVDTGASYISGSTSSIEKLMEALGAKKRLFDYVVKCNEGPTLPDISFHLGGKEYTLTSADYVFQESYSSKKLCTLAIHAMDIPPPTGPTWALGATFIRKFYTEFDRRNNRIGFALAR

Sequence of cathepsin D (P07339 65-412, species assumed): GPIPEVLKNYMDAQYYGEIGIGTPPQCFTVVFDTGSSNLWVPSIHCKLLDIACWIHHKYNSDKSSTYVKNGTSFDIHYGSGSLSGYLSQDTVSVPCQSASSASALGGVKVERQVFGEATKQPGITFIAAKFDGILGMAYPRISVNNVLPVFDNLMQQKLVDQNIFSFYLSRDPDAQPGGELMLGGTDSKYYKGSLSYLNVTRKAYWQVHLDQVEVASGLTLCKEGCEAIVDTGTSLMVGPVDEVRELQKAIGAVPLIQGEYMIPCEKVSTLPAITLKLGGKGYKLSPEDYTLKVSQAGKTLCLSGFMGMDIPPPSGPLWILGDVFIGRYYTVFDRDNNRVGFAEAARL

inhibition of cathepsin D (cathepsin D): very strongly
inhibition of renin (renin): relative strong inhibiton
SMILES: CC(C)CC(=O)N[C@H](C(=O)N[C@H](C(=O)N[C@@H](CC(C)C)[C@@H](O)CC(=O)N[C@@H](C)C(=O)N[C@@H](CC(C)C)[C@@H](O)CC(=O)O)C(C)C)C(C)C [Pepstatin, RCO-L-Val-L-Val-AHMHA-L-Ala-AHMHA] (Isovaleryl-VV[Sta]A[Sta]-OH)
inhibition of pepsin (pepsin): very strongly
